Here are results for nine compounds from patent publication US8536201B2, “Pesticidal arylpyrrolidines” (Bayer Intellectual Property GmbH, priority 2009, dated 2013).

What all share (format): in vivo
For data set [1], the system named is Spodoptera litura. The data set is described as follows: Tobacco cutworm (Spodoptera litura) larvae, sweet potato leaf dip test. Conditions: third instar larvae, treated sweet potato leaves, after 7 days. The procedure:
Unless not mentioned otherwise, the test solutions were prepared as follows:
Solvent: dimethyl formamide, 3 parts by weight
Emulsifier: polyoxyethylene alkyl phenyl ether, 1 part by weight
To prepare the test solution, 1 part by weight of an active compound is mixed with the above-mentioned amount of solvent containing the above-mentioned amount of emulsifier, and the mixture is diluted with water to the desired concentration.
BIOLOGICAL TEST EXAMPLE 1.1
Tobacco Cutworm (Spodoptera litura) Larvae
Leaves of sweet potato were immersed in the test solution at the appropriate concentration, and the leaves were dried in air. The leaves were then placed in a petri dish having a diameter of 9 cm, and ten Spodoptera litura at third instar larvae were released therein. The petri dishes were placed in a temperature-controlled chamber at 25° C. After 2 days and 4 days more sweet potato leaves were added. After 7 days, the number of dead larvae was counted to calculate the insecticidal activity. An insecticidal activity of 100% means that all larvae were killed, whereas an insecticidal activity of 0% means that no larva was killed. In the current test, the results of two petri dishes for each treatment were averaged.

In a further data set the test system is Ctenocephalides felis. The data set is described as follows: Ctenocephalides felis test (CTECFE), blood feeding. The settings on record: for activity (mortality in %): 100 ppm in cattle blood, adult unfed fleas, after 2 days. As to the method: BIOLOGICAL TEST EXAMPLE 7
Ctenocephalides felis—Test (CTECFE)
(§1) Solvent: Dimethyl Sulfoxide
To produce a suitable preparation of active compound, 10 mg of active compound are dissolved in 0.5 ml solvent, and the concentrate is diluted with cattle blood to the desired concentration. Approximately 20 adult unfed (Ctenocephalides felis) are placed in flea chambers. The blood chamber, sealed with parafilm on the bottom, are filled with cattle blood supplied with compound solution and placed on top of the flea chamber, so that the fleas are able to suck the blood. The blood chamber is heated to 37° C. whereas the flea chamber is kept at room temperature.
After 2 days mortality in % is determined. 100% means that all the fleas have been killed; 0% means that none of the fleas have been killed.

The subject of the next data set is Aulacophora femoralis. Briefly: Cucurbit leaf beetle (Aulacophora femoralis) cucumber leaf dip test. Conditions: second instar larvae, treated cucumber leaves, after 7 days. As to the method: BIOLOGICAL TEST EXAMPLE 3
Cucurbit Leaf Beetle (Aulacophora femoralis)
Leaves of cucumber were immersed in the test solution at the appropriate concentration, and the leaves were dried in air. The leaves were then put in a plastic cup containing sterilized black soil and five Aulacophora femoralis at second instar larvae were released in the cup. The cups were placed in a temperature-controlled chamber at 25° C. After 7 days, the number of dead larvae was counted, and thus the insecticidal activity was calculated. An insecticidal activity of 100% means that all larvae were killed, whereas an insecticidal activity of 0% means that no larva was killed.

The subject of the next data set is Tetranychus urticae. Briefly: Two-spotted spider mite Tetranychus urticae spray test on kidney bean. Conditions: adult mites, after 7 days. The procedure: BIOLOGICAL TEST EXAMPLE 2
Two-Spotted Spider Mite Tetranychus urticae
50 to 100 adult mites of Tetranychus urticae were inoculated to leaves of kidney bean at two-leaf stage planted in a pot of 6 cm in diameter. After one day, test solution at the appropriate concentration was sprayed thereon in a sufficient amount using a spray gun. After the spraying, the plant pot was placed inside a greenhouse, and after 7 days, the acaricidal activity was calculated. An acaricidal activity of 100% means that all mites were killed, an acaricidal activity of 0% means that no mite was killed.

The subject of data set [2] is Spodoptera litura. Briefly: Tobacco cutworm (Spodoptera litura) larvae using artificial diet. The settings on record: 20 ppm, 3rd-instar larvae. As to the method: BIOLOGICAL TEST EXAMPLE 1.2
Tobacco Cutworm (Spodoptera litura) Larvae Using Artificial Diet
2.3 g of artificial diet powder is put into a PET cup (7.5 cm diameter, 4 cm depth). The powder was leveled to make a layer in the bottom of the cup. 5 ml of a chemical solution is poured onto the powder and spread uniformly. The cup with treated diet powder is placed quiet to let the diet jell. Into each testing cup five 3rd-instar larvae were released. The testing cup is closed with the lid and placed in a temperature-controlled room at 25° C. and 50-60% R.H., 16L8D lighting conditions.
The mortality in % was determined according to the following criteria:
1 larva dead: 20% Efficacy
5 larvae dead: 100% Efficacy

The subject of the next data set is Musca domestica. Briefly: Musca domestica test. The settings on record: for activity (mortality in %): 100 ppm, adults, sugar/compound sponge, after 2 days. As to the method:
BIOLOGICAL TEST EXAMPLE 9
as §1
To produce a suitable preparation of active compound, 10 mg of active compound are dissolved in 0.5 ml solvent, and the concentrate is diluted with water to the desired concentration. Prior to the assay, a piece of kitchen sponge is soaked with a mixture of sugar and compound solution and placed into a container. 10 adults (Musca domestica) are placed into the container and closed with a perforated lid.
After 2 days mortality in % is determined. 100% means that all the flies have been killed; 0% means that none of the flies have been killed.

In a further data set the test system is Boophilus microplus. The data set is described as follows: Boophilus microplus (dip). The procedure:
BIOLOGICAL TEST EXAMPLE 5
Boophilus microplus (Dip)
as §1
To produce a suitable preparation of active compound, 10 mg of active compound are dissolved in 0.5 ml solvent, and the concentrate is diluted with water to the desired concentration. Eight to ten adult engorged female Boophilus microplus ticks are placed in perforated plastic beakers and immersed in aqueous compound solution for one minute. Ticks are transferred to a filter paper in a plastic tray. Egg deposition of fertile eggs is monitored after. After 7 days mortality in % is determined. 100% means that all the ticks have been killed; 0% means that none of the ticks have been killed.

A further data set relates to Lucilia cuprina. Briefly: Lucilia cuprina (48 hrs) larval test. The settings on record: read-out: activity (larval mortality in %). The procedure: BIOLOGICAL TEST EXAMPLE 8
Species: Lucilia cuprina 1st Instar Larvae (Age 24 Hrs)
as §1
10 mg active compound are dissolved in 0.5 ml dimethyl sulfoxide. Serial dilutions are made to obtain the desired rates. Approximately 20 Lucilia cuprina 1st instar larvae are transferred into a test tube containing 1 cm^3 of minced horse meat and 0.5 ml aqueous dilution of test compound.
After 2 days larval mortality in % is recorded. 100% efficacy=all larvae are killed, […].

With `CCC(=O)NC(C)c1ccc(N2CCC(c3cc(Cl)cc(Cl)c3)(C(F)(F)F)C2)cc1` (racemic) [Compound 2], the insecticidal activity with Spodoptera litura [1] (20 ppm), in the data set with Aulacophora femoralis (20 ppm), in the data set on Tetranychus urticae (100 ppm) and in the data set on Spodoptera litura [2] was 100% each time. For the same compound, the “activity (mortality in %)” value with Ctenocephalides felis turned out to be 95%.
Regarding `CC(NC(=O)C1CC1)c1ccc(N2CCC(c3cc(Cl)cc(Cl)c3)(C(F)(F)F)C2)cc1` (racemic) [Compound 3], the insecticidal activity in the data set on Spodoptera litura [1] (20 ppm), with Aulacophora femoralis (20 ppm), with Tetranychus urticae (20 ppm) and in the data set with Spodoptera litura [2] was 100% throughout. In addition, the “activity (mortality in %)” value with Musca domestica came to 90%.
With `CC(NC(=O)C1CC1)c1ccc(N2CCC(c3cc(Cl)c(Cl)c(Cl)c3)(C(F)(F)F)C2)cc1` (racemic) [Compound 8], the insecticidal activity in the data set on Spodoptera litura [1] (20 ppm), in the data set on Aulacophora femoralis (20 ppm), in the data set on Tetranychus urticae (20 ppm) and in the data set on Spodoptera litura [2] was 100% each time. Moreover, in the data set on Musca domestica, the “activity (mortality in %)” value is 90%.
Take `CCC(=O)NC(C)c1ccc(N2CCC(c3cc(C(F)(F)F)cc(C(F)(F)F)c3)(C(F)(F)F)C2)cc1` (racemic) [Compound 10]: the insecticidal activity in the data set on Spodoptera litura [1] (20 ppm), in the data set with Aulacophora femoralis (20 ppm), in the data set on Tetranychus urticae (20 ppm) and in the data set on Spodoptera litura [2] was 100% in each case. In the data set on Musca domestica, the “activity (mortality in %)” value is given as 90%.
`COCCC(=O)NC(C)c1ccc(N2CCC(c3cc(Cl)c(Cl)c(Cl)c3)(C(F)(F)F)C2)cc1` (racemic) [Compound 14]: in the data set on Ctenocephalides felis, the “activity (mortality in %)” value amounted to 90%. The insecticidal activity in the data set on Aulacophora femoralis (100 ppm), in the data set with Tetranychus urticae (20 ppm) and in the data set on Spodoptera litura [2] was 100% throughout.
With `C[C@H](NC(=O)C1CC1)c1ccc(N2CCC(c3cc(Cl)c(Cl)c(Cl)c3)(C(F)(F)F)C2)cc1` (some centres unmarked) [Compound 8-b], the insecticidal activity in the data set with Spodoptera litura [1] (20 ppm), in the data set on Aulacophora femoralis (20 ppm), with Tetranychus urticae (20 ppm) and with Spodoptera litura [2] was 100% each time. Also, in the data set on Ctenocephalides felis, the “activity (mortality in %)” value stood at 95%.
Take `CC(=O)N[C@@H](C)c1ccc(N2CCC(c3cc(C(F)(F)F)cc(C(F)(F)F)c3)(C(F)(F)F)C2)cc1` (some centres unmarked) [Compound 9-b]: the insecticidal activity in the data set with Spodoptera litura [1] (20 ppm), in the data set with Aulacophora femoralis (20 ppm) and with Spodoptera litura [2] was 100% each time. In the data set on Musca domestica, the “activity (mortality in %)” value turned out to be 90%.
Take `C[C@H](NC(=O)C1CC1)c1ccc(N2CCC(c3cc(C(F)(F)F)cc(C(F)(F)F)c3)(C(F)(F)F)C2)cc1` (stereo partly drawn) [Compound 11-b, N-[(1S)-1-(4-{3-[3,5-bis(trifluoromethyl)phenyl]-3-(trifluoromethyl)pyrrolidin-1-yl}phenyl)ethyl]cyclopropanecarboxamide]: the insecticidal activity in the data set with Spodoptera litura [1] (0.8 ppm), in the data set with Spodoptera litura [1] (20 ppm), in the data set with Aulacophora femoralis (4 ppm), with Aulacophora femoralis (20 ppm), in the data set with Tetranychus urticae (4 ppm) and in the data set on Tetranychus urticae (20 ppm) was 100% each time. The mortality at 100 ppm with Ctenocephalides felis (Ctenocephalides felis, in Bos taurus, 48 h, read-out: activity (mortality in %)) was 100%; with Boophilus microplus (Rhipicephalus microplus, 168 h, read-out: activity (mortality in %)) it was 100%; in the data set on Musca domestica (Musca domestica, 48 h, read-out: activity (mortality in %)), 100%; in the data set on Lucilia cuprina it was 100%.
In the case of `COCCC(=O)N[C@@H](C)c1ccc(N2CCC(c3cc(C(F)(F)F)cc(C(F)(F)F)c3)(C(F)(F)F)C2)cc1` (some centres unmarked) [Compound 15-b], the “activity (mortality in %)” value with Boophilus microplus (100 ppm, adult engorged females immersed one minute, after 7 days) is 80%. Besides, the insecticidal activity in the data set on Aulacophora femoralis (100 ppm), with Tetranychus urticae (20 ppm) and with Spodoptera litura [2] was 100% throughout.

A word on the mortality: it is the share of the test organisms that died.
